Test results reported in patent US20220119354A1, “DIAMINO-SUBSTITUTED PYRIDINES AND PYRIMIDINES AS HERBICIDES” (FMC Corporation, priority 2019, published 2022).

Tests used:
Format in all cases: in vivo
[1] = tested on: wheat (Triticum aestivum); assay: Test A postemergence, wheat; details: 0 to 100 scale, 0 no effect, 100 complete control
Method in brief: (§1)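 Ratings reflect visual comparison with untreated controls roughly 10 d after greenhouse application, 0 meaning no effect and 100 complete control. Treatment was by directed soil spray at planting or by spray onto one- to two-leaf plants in loam/sand pots.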

[2] = tested on: barnyardgrass (Echinochloa crus-galli); assay: Test A postemergence, barnyardgrass; details: 0 to 100 scale, 0 no effect, 100 complete control
Method in brief: as §1

[3] = tested on: pigweed (Amaranthus retroflexus); assay: Test A postemergence, pigweed; details: 0 to 100 scale, 0 no effect, 100 complete control
Method in brief: as §1

kochia (Kochia scoparia) [4] = assay: Test A preemergence, kochia; details: 0 to 100 scale, 0 is no effect, 100 is complete control
Method in brief: as §1

[5] = tested on: ryegrass, Italian (Lolium multiflorum); assay: Test A postemergence, Italian ryegrass; details: 0 to 100 scale, 0 no effect, 100 complete control
Method in brief: as §1

rice (Oryza sativa) = assay: Test B flooded paddy test, rice; details: Flood, 250 g ai/ha, applied to paddy water, 2-leaf stage, visual evaluation after 13 to 15 d
Method in brief: (§2)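 Growth to two leaves preceded treatment. Flooding to 3 cm above soil surface, then water-applied compound; depth kept constant. Scored visually relative to controls after 13–15 d greenhouse; 100 means full control.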

[6] = tested on: sedge, umbrella (small-flower umbrella sedge, Cyperus difformis); assay: Test B flooded paddy test, umbrella sedge; details: Flood, 250 g ai/ha, applied to paddy water, 2-leaf stage, visual evaluation after 13 to 15 d
Method in brief: as §2

[7] = tested on: pigweed (Amaranthus retroflexus); assay: Test A preemergence, pigweed; details: 0 to 100 scale, 0 is no effect, 100 is complete control
Method in brief: as §1

[8] = tested on: ducksalad (Heteranthera limosa); assay: Test B flooded paddy test, ducksalad; details: Flood, 250 g ai/ha, applied to paddy water, 2-leaf stage, visual evaluation after 13 to 15 d
Method in brief: as §2

[9] = tested on: blackgrass (Alopecurus myosuroides); assay: Test A postemergence, blackgrass; details: 0 to 100 scale, 0 no effect, 100 complete control
Method in brief: as §1

[10] = tested on: ragweed (common ragweed, Ambrosia elatior); assay: Test A preemergence, ragweed; details: 0 to 100 scale, 0 is no effect, 100 is complete control
Method in brief: as §1

[11] = tested on: ragweed (common ragweed, Ambrosia elatior); assay: Test A postemergence, ragweed; details: 0 to 100 scale, 0 no effect, 100 complete control
Method in brief: as §1

[12] = tested on: barnyardgrass (Echinochloa crus-galli); assay: Test A preemergence, barnyardgrass; details: 0 to 100 scale, 0 is no effect, 100 is complete control
Method in brief: as §1

kochia (Kochia scoparia) [13] = assay: Test A postemergence, kochia; details: 0 to 100 scale, 0 no effect, 100 complete control
Method in brief: as §1

[14] = tested on: barnyardgrass (Echinochloa crus-galli); assay: Test B flooded paddy test, barnyardgrass; details: Flood, 250 g ai/ha, applied to paddy water, 2-leaf stage, visual evaluation after 13 to 15 d
Method in brief: as §2

[15] = tested on: foxtail, giant (Setaria faberii); assay: Test A postemergence, giant foxtail; details: 0 to 100 scale, 0 no effect, 100 complete control
Method in brief: as §1

[16] = tested on: galium (catchweed bedstraw, Galium aparine); assay: Test A postemergence, galium; details: 0 to 100 scale, 0 no effect, 100 complete control
Method in brief: as §1

[17] = tested on: ryegrass, Italian (Lolium multiflorum); assay: Test A preemergence, Italian ryegrass; details: 0 to 100 scale, 0 is no effect, 100 is complete control
Method in brief: as §1

[18] = tested on: foxtail, giant (Setaria faberii); assay: Test A preemergence, giant foxtail; details: 0 to 100 scale, 0 is no effect, 100 is complete control
Method in brief: as §1

corn (Zea mays) = assay: Test A postemergence, corn; details: 0 to 100 scale, 0 no effect, 100 complete control
Method in brief: as §1

Row | SMILES | Plant response rating, Wheat ([1]; 125 g ai/ha) | Plant response rating, Wheat ([1]; 500 g ai/ha) | Plant response rating, Barnyardgrass ([2]; 125 g ai/ha) | Plant response rating, Barnyardgrass ([2]; 500 g ai/ha) | Plant response rating, Pigweed ([3]; 125 g ai/ha) | Plant response rating, Pigweed ([3]; 500 g ai/ha) | Kochia plant response rating (kochia (Kochia scoparia) [4]; 125 g ai/ha) | Kochia plant response rating (kochia (Kochia scoparia) [4]; 500 g ai/ha) | Plant response rating, Ryegrass, Italian ([5]; 125 g ai/ha) | Plant response rating, Ryegrass, Italian ([5]; 500 g ai/ha) | Plant response rating, Rice (0 to 100 scale, 0 is no effect, 100 is complete control) (rice (Oryza sativa)) | Plant response rating, Sedge, Umbrella (0 to 100 scale, 0 is no effect, 100 is complete control) [6] | Pigweed plant response rating ([7]; 125 g ai/ha) | Pigweed plant response rating ([7]; 500 g ai/ha) | Plant response rating, Ducksalad (0 to 100 scale, 0 is no effect, 100 is complete control) [8] | Plant response rating, Blackgrass ([9]; 125 g ai/ha) | Plant response rating, Blackgrass ([9]; 500 g ai/ha) | Ragweed plant response rating ([10]; 125 g ai/ha) | Ragweed plant response rating ([10]; 500 g ai/ha) | Plant response rating, Ragweed ([11]; 125 g ai/ha) | further results
1 | CC[C@@H](Nc1ncc(C(F)(F)F)c(N)n1)c1cc2ccc(F)cc2o1 [Compound 63] | 0 | 0 | 30 | 60 | 100 | 100 | 80 | 100 | 0 | 0 | 0 | 80 | 90 | 100 | 75 | 0 | 20 | 50 | 100 | 30 | Plant response rating, Ragweed ([11]; 500 g ai/ha): 60; Barnyardgrass plant response rating ([12]; 125 g ai/ha): 70; Barnyardgrass plant response rating ([12]; 500 g ai/ha): 100; Plant response rating, Kochia (kochia (Kochia scoparia) [13]; 125 g ai/ha): 80; Plant response rating, Kochia (kochia (Kochia scoparia) [13]; 500 g ai/ha): 90; Plant response rating, Barnyardgrass (0 to 100 scale, 0 is no effect, 100 is complete control) [14]: 45; Plant response rating, Foxtail, Giant ([15]; 125 g ai/ha): 20; Plant response rating, Foxtail, Giant ([15]; 500 g ai/ha): 90; Plant response rating, Galium ([16]; 125 g ai/ha): 50; Plant response rating, Galium ([16]; 500 g ai/ha): 90; Ryegrass, Italian plant response rating ([17]; 125 g ai/ha): 40; Ryegrass, Italian plant response rating ([17]; 500 g ai/ha): 90; Foxtail, Giant plant response rating ([18]; 125 g ai/ha): 60; Foxtail, Giant plant response rating ([18]; 500 g ai/ha): 100; Plant response rating, Corn (corn (Zea mays); 125 g ai/ha): 0; Plant response rating, Corn (corn (Zea mays); 500 g ai/ha): 10
2 | CC(Nc1nc(N)c(C(F)(F)F)c(C(F)(F)F)n1)C1Cc2ccccc2C1 (racemic) [Compound 69] | 0 | 0 | 0 | 0 | 20 | 80 | 0 | 70 | 0 | 0 | 0 | 0 | 0 | 70 | 0 | 0 | 30 | 0 | 70 | 0 | Plant response rating, Ragweed ([11]; 500 g ai/ha): 0; Barnyardgrass plant response rating ([12]; 125 g ai/ha): 0; Barnyardgrass plant response rating ([12]; 500 g ai/ha): 0; Plant response rating, Kochia (kochia (Kochia scoparia) [13]; 125 g ai/ha): 30; Plant response rating, Kochia (kochia (Kochia scoparia) [13]; 500 g ai/ha): 80; Plant response rating, Barnyardgrass (0 to 100 scale, 0 is no effect, 100 is complete control) [14]: 0; Plant response rating, Foxtail, Giant ([15]; 125 g ai/ha): 0; Plant response rating, Foxtail, Giant ([15]; 500 g ai/ha): 0; Plant response rating, Galium ([16]; 125 g ai/ha): 0; Plant response rating, Galium ([16]; 500 g ai/ha): 0; Ryegrass, Italian plant response rating ([17]; 125 g ai/ha): 0; Ryegrass, Italian plant response rating ([17]; 500 g ai/ha): 0; Foxtail, Giant plant response rating ([18]; 125 g ai/ha): 0; Foxtail, Giant plant response rating ([18]; 500 g ai/ha): 0; Plant response rating, Corn (corn (Zea mays); 125 g ai/ha): 20; Plant response rating, Corn (corn (Zea mays); 500 g ai/ha): 0
